Test results reported in patent US20030114512A1, “Compounds with 5-ht2 and 5-ht1a agonist activity for treating glaucoma” (priority 2002, published 2003).
Like-named read-outs stand apart in the source and are kept apart here.

How the values were obtained:
[1] = biological target: T1, 5-HT2 receptor (Rattus norvegicus, UniProt P14842); experiment: 5-HT2 functional assay: phosphoinositide (PI) turnover; format: cell-based; conditions: for Emax: A7r5 cells, relative to 5-HT set at 100%, read-out: Efficacy (Emax, %) 5-HT2 functional; for EC50: [3H]inositol phosphates, A7r5 rat vascular smooth muscle cells, read-out: EC50, nM (SEM) 5-HT2 functional
T1 construct: A7r5 rat vascular smooth muscle cells; endogenous in cells; host or cells: A7r5 rat vascular smooth muscle cells
Description: 5-HT2 Functional Assay: Phosphoinositide (PI) Turnover Assay
The relative agonist activity of serotonergic compounds at the 5-HT2 receptor can be determined in vitro using the ability of the compounds to stimulate the production of [^3H]inositol phosphates in [^3H]myo-inositol-labeled A7r5 rat vascular smooth muscle cells by their ability to activate the enzyme phospholipase C. These cells are grown in culture plates, maintained in a humidified atmosphere of 5% CO2 and 95% air and fed semi-weekly with Dulbecco's modified Eagle medium (DMEM) containing 4.5 g/l glucose and supplemented with 2 mM glutamine, 10 μg/ml gentamicin, and 10% fetal bovine serum. For the purpose of conducting the phosphoinositide (PI) turnover experiments, the A7r5 cells are cultured in 24-well plates as previously [J. Pharmacol. Expt. Ther., 286, 411 (1998)]. Confluent cells are exposed for 24-30 hrs to 1.5 μCi [^3H]-myo-inositol (18.3 Ci/mmol) in 0.5 ml of serum-free medium. Cells are then rinsed once with DMEM/F-12 containing 10 mM LiCl prior to incubation with the test agent (or solvent as the control) in 1.0 ml of the same medium for 1 hr at 37° C., after which the medium is aspirated and 1 ml of cold 0.1 M formic acid added to stop the reaction. The chromatographic separation of [^3H]-inositol phosphates ([^3H]-IPs) on an AG-1-X8 column is performed as previously described [J. Pharmacol. Expt. Ther. 286, 411 (1998)] with sequential washes with H2O and 50 mM ammonium formate, followed by elution of the total [^3H]-IPs fraction with 1.2 M ammonium formate containing 0.1 M formic acid. The eluate (4 ml) is collected, mixed with 15 ml scintillation fluid, and the total [^3H]-IPs determined by scintillation counting on a beta counter. Concentration-response data are analyzed by the sigmoidal fit function of the Origin Scientific Graphics software (Microcal Software, Northampton, Mass.) to determine agonist potency (EC50 value) and efficacy (Emax). Serotonin (5-HT) is used as a positive control (standard) agonist compound and the efficacy of test compounds is compared to that of 5-HT (set at 100%). The concentration of the compound needed to stimulate the production of [^3H]-IPs by 50% of the maximum response is termed the EC50 value.

[2] = biological target: T2, human cloned 5-HT1A receptors (Homo sapiens, UniProt P08908); experiment: 5-HT1A receptor binding assay ([3H]8-OH-DPAT); conditions: [3H]8-OH-DPAT, CHO cell membranes; read-out: IC50, nM (SEM) 5-HT1A receptor binding
T2 construct: purchased NEN (manufactured by Biosignal, Inc., Montreal, Canada); host or cells: CHO cells (membranes)
T2 sequence (P08908 1-422): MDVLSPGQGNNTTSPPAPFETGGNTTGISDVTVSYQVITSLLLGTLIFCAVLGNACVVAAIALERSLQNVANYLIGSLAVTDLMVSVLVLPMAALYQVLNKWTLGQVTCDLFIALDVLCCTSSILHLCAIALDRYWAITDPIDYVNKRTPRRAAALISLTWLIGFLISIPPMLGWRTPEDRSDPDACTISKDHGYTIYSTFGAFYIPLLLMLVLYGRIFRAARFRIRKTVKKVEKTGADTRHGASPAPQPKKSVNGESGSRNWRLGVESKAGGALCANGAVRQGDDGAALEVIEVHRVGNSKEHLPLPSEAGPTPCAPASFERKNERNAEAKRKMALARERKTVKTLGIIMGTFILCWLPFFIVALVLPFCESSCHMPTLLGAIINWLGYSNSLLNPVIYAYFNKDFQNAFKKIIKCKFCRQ
Description: 5-HT1A Receptor Binding Assay
5-HT1A binding studies were performed with human cloned receptors expressed in Chinese hamster ovary (CHO) cells using (^3H)8-OH DPAT as the ligand. Membranes from Chinese hamster ovary cells (CHO) expressing cloned 5-HT1A receptors (manufactured for NEN by Biosignal, Inc., Montreal, Canada) were homogenized in approximately 40 volumes of 50 mM Tris pH 7.4 for 5 sec. Drug dilutions were made using a Beckman Biomek 2000 robot (Beckman Instruments, Fullerton, Calif.). Incubations were conducted with membrane prep, test compounds, and 0.25 nM [^3H]8-OH-DPAT (NEN, Boston, Mass.) in the same buffer at 27° C. for 1 h. Assays were terminated by rapid vacuum filtration over Whatman GF/B glass fiber filters pre-soaked in 0.3% polyethyleneimine. Bound radioactivity was measured using liquid scintillation spectrometry. Data were analyzed using non-linear curve fitting programs (Sharif et al., J. Pharmac. Pharmacol. 51: 685-694, 1999).
Ligand binding studies can also be run using membrane preparations from calf and rat brain (local source) and human cortex membranes. Specific brain regions were dissected out, homogenized in 10 volumes of 0.32 M sucrose and centrifuged for 10 min at 700×g. The resulting supernatant was centrifuged at 43,500×g for 10 min and the pellet re-suspended in 50 mM Tris-HCl (pH 7.7, 25° C.) using a 10 sec polytron treatment. Aliquots were stored at −140° C. To remove endogenous serotonin, the preps were incubated at 37° C. for 10 min prior to the experiment. Assay incubations were terminated by rapid filtration over Whatman GF/C filters using a Brandel cell harvester. Ki values were calculated using the Cheng-Prusoff equation (De Vry et al., J. Pharm. Exper. Ther. 284:1082-1094, 1998.)

[3] = system: intraocular pressure; experiment: IOP response in lasered (hypertensive) eyes of conscious cynomolgus monkeys; format: in vivo, cynomolgus monkey; conditions: 300 μg topical ocular
Description: IOP Response in Lasered (Hypertensive) Eyes of Conscious Cynomolgus Monkeys
Intraocular pressure (IOP) was determined with an Alcon Pneumatonometer after light corneal anesthesia with 0.1% proparacaine. Eyes were washed with saline after each measurement. After a baseline IOP measurement, test compound was instilled in one 30 μL aliquot to the right eyes only of nine cynomolgus monkeys. Vehicle was instilled in the right eyes of six additional animals. Subsequent IOP measurements were taken at 1, 3, and 6 hours.

[4] = system: intraocular pressure; conditions: rabbits; cited from earlier work
[5] = system: intraocular pressure; conditions: monkey; ascribed to α1A receptor activity; cited from earlier work

T1 sequence (P14842 whole entry): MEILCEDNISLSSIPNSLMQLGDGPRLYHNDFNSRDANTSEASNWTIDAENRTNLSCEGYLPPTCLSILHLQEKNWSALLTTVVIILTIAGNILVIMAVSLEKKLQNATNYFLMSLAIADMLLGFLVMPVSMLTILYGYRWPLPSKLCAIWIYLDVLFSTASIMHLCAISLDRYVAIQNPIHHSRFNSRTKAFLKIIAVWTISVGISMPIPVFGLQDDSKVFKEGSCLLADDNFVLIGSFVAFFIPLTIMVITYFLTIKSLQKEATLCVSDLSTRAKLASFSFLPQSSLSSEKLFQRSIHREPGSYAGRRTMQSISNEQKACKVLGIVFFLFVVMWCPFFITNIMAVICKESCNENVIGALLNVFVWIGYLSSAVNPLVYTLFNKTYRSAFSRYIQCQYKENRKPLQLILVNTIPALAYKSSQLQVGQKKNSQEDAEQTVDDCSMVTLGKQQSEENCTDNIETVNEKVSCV

COc1ccc2ccn(CC(C)N)c2c1.O=C(O)/C=C/C(=O)O (centres unmarked) [1-(2-aminopropyl) 6-methoxyindole fumarate]
Emax [1]: 88% | EC50 [1]: 255 nM | IC50 [2]: 225 nM | Percent IOP Reduction ([3]; 1 hour after dose): 22.5% | Percent IOP Reduction ([3]; 3 hours after dose): 33.1% | Percent IOP Reduction ([3]; 6 hours after dose): 27.5%

CCCN(CCC)C1CCc2cccc(O)c2C1 (centres unmarked) [Compound 8-OH-DPAT, 8-hydroxydipropylaminotetralin]
Effect on IOP [4]: reduces IOP

CC(N)Cn1ccc2cc(Cl)ccc21.O=C(O)/C=C/C(=O)O (centres unmarked) [1-(2-aminopropyl) 5-chloroindole fumarate]
Emax [1]: 104% | EC50 [1]: 1390 nM | IC50 [2]: 417 nM | Percent IOP Reduction ([3]; 1 hour after dose): 1.2% | Percent IOP Reduction ([3]; 3 hours after dose): 16% | Percent IOP Reduction ([3]; 6 hours after dose): 20.1%

COc1ccccc1N1CCN(CCCNc2c(C)c(=O)n(C)c(=O)n2C)CC1 [5-methylurapidil]
Effect on IOP [5]: lowers IOP
